# How the values were obtained:
# MBP-IKKβ (701–745) [1] = target: T1, MBP-IKKβ (701–745) (Homo sapiens, UniProt O14920); assay: SPR affinity assay on immobilized MBP-IKKβ; assay type: binding
# T1 construct: made in house; host or cells: E. coli BL21(DE3)
# T1 sequence (O14920 701-745): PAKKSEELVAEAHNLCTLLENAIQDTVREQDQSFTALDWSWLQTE
# Protocol: The sensor surface was activated with a 7 min injection of a mixture comprising 50 mM N-hydroxysuccinimide (NHS) and 200 mM 1-ethyl-3-(3- dimethylaminopropyl) carbodiimide (EDC). Then, 33 μg/mL of IKKβ was injected to reach the target level of 500 RU and the surface was blocked with 1 M ethanolamine, pH 8.5. A series of concentrations of NEMO or SHK were injected into the flow system and analyzed for 90 or 120 s, followed by dissociation for 90 or 600 s. All binding analyses was performed in phosphate-buffered saline (PBS, pH 7.4) with 0.05% (v/v) Tween-20 at 25 °C. Prior to analysis, double reference subtractions were made to eliminate bulk refractive index changes, injection noise, and data drift. The binding affinity was determined by fitting to a Langmuir 1:1 binding model in the Biacore Evaluation software (GE Healthcare).
# MBP-IKKβ (701–745) [2] = target: T1, MBP-IKKβ (701–745); assay: MST binding assay to IKKβ
# [3] = target: T2, NEMO/IKKβ interaction (GST-NEMO1–196 / biotinylated IKKβ peptide) (Homo sapiens, UniProt Q9Y6K9); assay: FRET assay of NEMO/IKKβ binding; details: 10 nM GST-NEMO1–196, 200 nM biotinylated IKKβ peptide, read-out: IC50 for impairing NEMO/IKKβ interaction
# T2 construct: made in house; host or cells: E. coli BL21(DE3) (GST-NEMO)
# Protocol: A FRET assay was used to detect the effects of SHK on NEMO/IKKβ binding. 10 nM GST-NEMO1–196 was bound to 200 nM biotinylated IKKβ peptide in binding buffer (50 Mm Tris-HCl, 150 mM NaCl, and 1x cocktail, pH 7.4), and increasing amounts of SHK were titrated into the mixture, incubated for 30 min at room temperature. The detection agent (50 nM streptavidin-conjugated APC and 10 nM LANCE^TM Europium-W1024 labeled anti-GST, Perkin Elmer) was incubated for 30 min at room temperature, and the FRET signal was read on a multifunctional microplate reader (BioTek Synergy NEO).
# [4] = system: colorectal cancer cells (LoVo, RKO, SW620, HCT15, HCT116); assay: CCK-8 cell viability assay, colorectal cancer cells; assay type: cell-based, human; details: 48 h
# Protocol: (§1) Cell viability was determined using the CCK-8 assay. Briefly, 5×10³ cells were seeded into 96-well culture plates, allowed to adhere for overnight, and then changed to fresh medium containing various concentrations of SHK (0, 0.5, 1, 2 and 5 µM) dissolved in DMSO (final concentration, 0.1%). After incubation for 48 h, the CCK-8 reagent was added, and the absorbance was measured at 450 nm using an EnSpire® Multimode Plate Reader (Perkin Elmer, USA). The cell viability in the vehicle control groups was defined as 100%. Each assay was carried out in triplicate.
# CCD841 CoN cells = assay: CCK-8 cell viability assay, normal colonic epithelial cells; assay type: cell-based, human; details: 0.5–5 μM, 48 h
# Protocol: as §1
# [5] = system: NO release in LoVo and RKO cells; assay: Nitric oxide production assay (Griess reagent); assay type: cell-based, human
# Protocol: After overnight culture in a 96-well plate (1 × 10^4 cells in 100 μL medium per well), the cells were pre-treated with SHK for 1 hour and lipopolysaccharide for an additional 24 hours. The culture supernatant from each well was collected at the end of the experiment and used to measure NO production. The NO production was determined using a commercial NO assay kit on the basis of the Griess reaction (S0021, Beyotime Institute of Biotechnology, Shanghai, China) according to the manufacturer’s instructions.
# [6] = system: COX-2, iNOS, IL-6, TNF-α in LoVo and RKO cells; assay: Expression of inflammatory markers by qPCR and western blotting; assay type: cell-based, human
# Protocol: Protein lysates were separated by electrophoresis in a 10% acrylamide sodium dodecyl sulfate-polyacrylamide minigel (SDS-PAGE), electrophoretically transferred to a PVDF membrane, and immunoblotted with specific antibodies. The protein bands were detected by enhanced chemiluminescence. The protein concentrations were determined using a BCA protein assay kit (Beyotime Biotechnology, China). The experiments were carried out at least three times.
# IKKβ = target: T3, IKKβ (Homo sapiens, UniProt O14920); assay: IKKβ kinase activity in LoVo cells (spectrophotometric kit); assay type: cell-based
# T3 construct: endogenous in cells; host or cells: LoVo cells
# Protocol: Fig. 3 Effect of SHK on NEMO/IKKβ/NF-κB signaling. a The protein levels of NEMO, p-IKKβ/IKKβ, and p-IκBα/IκBα in LoVo cells treated with the indicated doses of SHK were analyzed by western blotting. b The protein levels of NEMO, p-IKKβ/IKKβ, p-IκBα/IκBα protein in tumor tissues were analyzed by western blotting. c LoVo cells were co-transfected with pNFκB-luc containing a Renilla luciferase reporter (as internal control) for 24 h and then treated with SHK for 48 h. Luciferase activity was determined using a dual-luciferase reporter assay system. d The IKKβ kinase activity was assessed using a spectrophotometric quantitative detection kit in LoVo cells. The relative activity was calculated using the provided formula. e The subcellular localizations of p50/p65 in LoVo cells following 48 h of treatment with SHK was examined by confocal microscopy analysis. The protein levels of p65 and p50 in nucleus (f) and whole-cell lysates (g) were measured by western blot analysis. Lamin B1 and β-actin were used as controls for sample loading. h The binding of p65 and p50 to a COX-2 promoter probe was analyzed using a streptavidin-agarose pull-down assay. The data are presented as the means ± SD of at least three separate experiments. (*p < 0.05, **p < 0.01, SHK treatment group vs. vehicle control group)
# [7] = system: NF-κB luciferase activity in LoVo cells; assay: NF-κB dual-luciferase reporter assay; assay type: cell-based, human; details: 0.5 and 1 µM, 48 h
# Protocol: LoVo cells in a 6-well plate were transfected with the pNFκB-luc plasmid (Beyotime), which contains the luciferase coding region downstream of an NFκB-responsive promoter, using Lipofectamine 2000 Reagent (Invitrogen, Grand Island, NY, USA). After transfection, the cells were treated with SHK (0.5 and 1µM) for 48 h. The dual-luciferase reporter assay system (Promega, Madison, WI) was used to measure the changes of luciferase activity in the cell lysates. The firefly luciferase activities were normalized to the corresponding Renilla luciferase activities. All values are shown as means ± SD of triplicate experiments.
# LoVo cells = assay: Real-time cell growth (xCELLigence) in IKKβ or NEMO depleted or mutant LoVo cells; assay type: cell-based, human; details: SHK 1 μM
# T2 sequence (Q9Y6K9 1-196): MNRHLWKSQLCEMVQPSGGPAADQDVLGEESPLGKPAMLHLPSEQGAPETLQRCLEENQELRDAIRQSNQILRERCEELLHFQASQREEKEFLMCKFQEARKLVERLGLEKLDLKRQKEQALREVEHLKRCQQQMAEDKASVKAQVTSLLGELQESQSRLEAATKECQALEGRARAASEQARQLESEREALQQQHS
# T3 sequence (Q9Y6K9 whole entry partner): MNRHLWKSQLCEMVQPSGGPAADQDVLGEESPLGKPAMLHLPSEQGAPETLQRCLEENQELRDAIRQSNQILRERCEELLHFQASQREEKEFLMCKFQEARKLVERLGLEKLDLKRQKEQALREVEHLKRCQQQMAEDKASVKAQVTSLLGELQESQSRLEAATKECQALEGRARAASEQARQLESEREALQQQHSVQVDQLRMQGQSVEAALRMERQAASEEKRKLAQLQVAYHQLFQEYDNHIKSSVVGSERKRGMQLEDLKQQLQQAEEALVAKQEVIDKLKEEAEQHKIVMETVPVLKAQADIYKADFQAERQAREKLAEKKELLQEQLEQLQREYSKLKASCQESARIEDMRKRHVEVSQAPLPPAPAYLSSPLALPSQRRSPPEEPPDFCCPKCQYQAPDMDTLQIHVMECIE
# T3 sequence (O14920 whole entry): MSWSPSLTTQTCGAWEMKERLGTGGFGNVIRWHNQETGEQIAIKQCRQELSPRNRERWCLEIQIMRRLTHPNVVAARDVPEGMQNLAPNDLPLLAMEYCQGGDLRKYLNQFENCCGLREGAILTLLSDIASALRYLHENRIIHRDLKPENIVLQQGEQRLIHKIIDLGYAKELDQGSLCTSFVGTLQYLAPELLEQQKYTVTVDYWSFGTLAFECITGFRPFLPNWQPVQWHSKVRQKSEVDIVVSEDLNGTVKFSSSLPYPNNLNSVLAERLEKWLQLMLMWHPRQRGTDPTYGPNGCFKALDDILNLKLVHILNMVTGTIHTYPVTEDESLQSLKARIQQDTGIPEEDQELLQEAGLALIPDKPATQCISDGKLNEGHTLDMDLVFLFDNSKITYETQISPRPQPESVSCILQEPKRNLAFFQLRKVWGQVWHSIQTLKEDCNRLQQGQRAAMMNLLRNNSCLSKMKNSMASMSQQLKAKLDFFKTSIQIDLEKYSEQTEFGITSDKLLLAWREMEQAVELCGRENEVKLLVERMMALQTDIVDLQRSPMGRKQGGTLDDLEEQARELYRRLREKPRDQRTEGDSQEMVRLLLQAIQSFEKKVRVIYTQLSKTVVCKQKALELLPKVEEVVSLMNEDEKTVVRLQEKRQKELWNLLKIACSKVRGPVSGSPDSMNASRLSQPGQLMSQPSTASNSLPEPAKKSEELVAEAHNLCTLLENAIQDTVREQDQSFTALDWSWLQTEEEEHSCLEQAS
structure (smiles),measurement,setting,value
"CC(C)=CC[C@@H](O)C1=CC(=O)c2c(O)ccc(O)c2C1=O [SHK, Shikonin]",Kd,"MBP-IKKβ (701–745) [1]; KD for MBP-IKKβ (701–745), SPR",8.19 ± 1.92 µM
same,Kd,"MBP-IKKβ (701–745) [1]; approximate summary value in discussion (SPR and MST), read-out: KD for either IKKβ or NEMO alone",~10 µM
same,Kd,MBP-IKKβ (701–745) [2],15.2 ± 4 µM
same,IC50,[3],0.231 ± 0.00939 µM
same,IC50,"[4]; Homo sapiens, CCK-8, range over cell lines, read-out: IC50 for inhibition of proliferation in colorectal cancer cells",0.6 to 2.5 µM
same,growth inhibition of cancer cell lines,"[4]; LoVo, RKO, SW620, HCT15, HCT116",dose-dependent growth inhibition
same,growth inhibitory effect in normal colonic epithelial cells,CCD841 CoN cells,absent
same,release of NO,[5],dramatically decreased
same,"expression of inflammatory markers COX-2, iNOS, IL-6, TNF-α",[6],suppressed the expression of inflammatory markers
same,phosphorylation and kinase activity of IKKβ,IKKβ,suppressed the phosphorylation and kinase activity of IKKβ in a dose-dependent manner
same,NF-κB luciferase activity,[7],significant inhibition
same,inhibitory effect on growth of single point mutation cells compared with wild-type,"LoVo cells; LoVo cells rescued with L737A, M94A, Q98A or R101A",significantly weakened
same,inhibitory effect on growth of IKKβ or NEMO depletion cells,LoVo cells; LoVo cells with shRNA,significantly weakened
